Data published in PubChem BioAssay AID1963965 (Molecular Pharmacology Branch, DTP, NCI, 2024).

Tested on: 996289-038-R-J1-PDC spheroid viability
Assay: Anticancer human tumor 996289-038-R-J1-PDC patient-derived colon adenocarcinoma cell line growth inhibition [PI3K]
Settings: spheroids with HUVEC and MSC; for IC50: curve of first compound; for viability, T/C: stronger effect = lower value
How it was run: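 Targeted small molecules plus PI3K inhibitors, half-log dose series from Cmax (default top 10 microM), were applied to heterotypic spheroids of cancer cells with HUVEC and MSCs. Viability indicated growth inhibition.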

[1] = second compound 0.00316 µM, first compound 0.0316 µM
[2] = second compound 0.00316 µM, first compound 0.1 µM
[3] = second compound 0.00316 µM, first compound 0.316 µM
[4] = second compound 0.00316 µM, first compound 1 µM
[5] = second compound 0.00316 µM, first compound 3.16 µM
[6] = second compound 0.00316 µM, first compound 10 µM
[7] = second compound 0.01 µM, first compound 0.0316 µM
[8] = second compound 0.01 µM, first compound 0.1 µM
[9] = second compound 0.01 µM, first compound 0.316 µM
[10] = second compound 0.01 µM, first compound 1 µM
[11] = second compound 0.01 µM, first compound 3.16 µM
[12] = second compound 0.01 µM, first compound 10 µM
[13] = second compound 0.0316 µM, first compound 0.0316 µM
[14] = second compound 0.0316 µM, first compound 0.1 µM
[15] = second compound 0.0316 µM, first compound 0.316 µM
[16] = second compound 0.0316 µM, first compound 1 µM
[17] = second compound 0.0316 µM, first compound 3.16 µM
[18] = second compound 0.0316 µM, first compound 10 µM
[19] = second compound 0.1 µM, first compound 0.0316 µM
[20] = second compound 0.1 µM, first compound 0.1 µM
[21] = second compound 0.1 µM, first compound 0.316 µM
[22] = second compound 0.1 µM, first compound 1 µM
[23] = second compound 0.1 µM, first compound 3.16 µM
[24] = second compound 0.1 µM, first compound 10 µM
[25] = second compound 0.316 µM, first compound 0.0316 µM
[26] = second compound 0.316 µM, first compound 0.1 µM
[27] = second compound 0.316 µM, first compound 0.316 µM
[28] = second compound 0.316 µM, first compound 1 µM
[29] = second compound 0.316 µM, first compound 3.16 µM
[30] = second compound 0.316 µM, first compound 10 µM
[31] = second compound 1 µM, first compound 0.0316 µM
[32] = second compound 1 µM, first compound 0.1 µM
[33] = second compound 1 µM, first compound 0.316 µM
[34] = second compound 1 µM, first compound 1 µM
[35] = second compound 1 µM, first compound 3.16 µM
[36] = second compound 1 µM, first compound 10 µM
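Further: spheroids exposed to compounds for seven days before viability read.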
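Wherever viability, T/C is given: luminescence used as a proxy for viable cell amount; percent viability relative to DMSO vehicle control as 100%.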

C#Cc1c(F)ccc2cc(O)cc(-c3ncc4c(N5CC6CCC(C5)N6)nc(OCC56CCCN5CC(F)C6)nc4c3F)c12 (stereo unspecified) + CC(Nc1ccc2c(c1)OCCn1cc(N3C(=O)OCC3C(F)F)nc1-2)C(N)=O
IC50 (second compound 0.00316 µM): 1.45 µM
IC50 (second compound 0.01 µM): 0.859 µM
IC50 (second compound 0.0316 µM): 0.641 µM
IC50 (second compound 0.1 µM): 0.347 µM
IC50 (second compound 0.316 µM): 0.169 µM
IC50 (second compound 1 µM): 0.0772 µM
viability, T/C [1]: 86%
viability, T/C [2]: 81.2%
viability, T/C [3]: 67.4%
viability, T/C [4]: 52%
viability, T/C [5]: 45%
viability, T/C [6]: 34.9%
viability, T/C [7]: 89%
viability, T/C [8]: 80.6%
viability, T/C [9]: 57.7%
viability, T/C [10]: 52.6%
viability, T/C [11]: 39.8%
viability, T/C [12]: 41.1%
viability, T/C [13]: 87.5%
viability, T/C [14]: 83.2%
viability, T/C [15]: 59.6%
viability, T/C [16]: 42.5%
viability, T/C [17]: 44.2%
viability, T/C [18]: 30%
viability, T/C [19]: 75%
viability, T/C [20]: 69.6%
viability, T/C [21]: 50.2%
viability, T/C [22]: 35.9%
viability, T/C [23]: 32%
viability, T/C [24]: 26.1%
viability, T/C [25]: 72.2%
viability, T/C [26]: 57.1%
viability, T/C [27]: 40.8%
viability, T/C [28]: 33.7%
viability, T/C [29]: 29.6%
viability, T/C [30]: 21.6%
viability, T/C [31]: 56.8%
viability, T/C [32]: 48.8%
viability, T/C [33]: 39%
viability, T/C [34]: 29.3%
viability, T/C [35]: 26.4%
viability, T/C [36]: 17.9%

C=CC(=O)N1CCN(c2nc(=O)n(-c3c(C)ccnc3C(C)C)c3nc(-c4c(O)cccc4F)c(F)cc23)C(C)C1 (stereo unspecified) + CC(Nc1ccc2c(c1)OCCn1cc(N3C(=O)OCC3C(F)F)nc1-2)C(N)=O
IC50 (second compound 0.00316 µM): > 10 µM
IC50 (second compound 0.01 µM): > 10 µM
IC50 (second compound 0.0316 µM): > 10 µM
IC50 (second compound 0.1 µM): > 10 µM
IC50 (second compound 0.316 µM): > 10 µM
IC50 (second compound 1 µM): > 10 µM
viability, T/C [1]: 91.2%
viability, T/C [2]: 92.7%
viability, T/C [3]: 106%
viability, T/C [4]: 112%
viability, T/C [5]: 113%
viability, T/C [6]: 106%
viability, T/C [7]: 97.8%
viability, T/C [8]: 96.7%
viability, T/C [9]: 112%
viability, T/C [10]: 100%
viability, T/C [11]: 118%
viability, T/C [12]: 118%
viability, T/C [13]: 88.7%
viability, T/C [14]: 106%
viability, T/C [15]: 95.3%
viability, T/C [16]: 105%
viability, T/C [17]: 97.3%
viability, T/C [18]: 98.8%
viability, T/C [19]: 87.5%
viability, T/C [20]: 81.9%
viability, T/C [21]: 87.8%
viability, T/C [22]: 98.9%
viability, T/C [23]: 85.4%
viability, T/C [24]: 83%
viability, T/C [25]: 79.4%
viability, T/C [26]: 67.7%
viability, T/C [27]: 75.1%
viability, T/C [28]: 80.9%
viability, T/C [29]: 77.1%
viability, T/C [30]: 77.7%
viability, T/C [31]: 82.2%
viability, T/C [32]: 50.2%
viability, T/C [33]: 60.2%
viability, T/C [34]: 59.1%
viability, T/C [35]: 62.6%
viability, T/C [36]: 67.7%

CC(Cn1ccc(-c2ccc(C#N)c(Cl)c2)n1)NC(=O)c1cc(C(C)O)[nH]n1 (stereo unspecified) + CC(Nc1ccc2c(c1)OCCn1cc(N3C(=O)OCC3C(F)F)nc1-2)C(N)=O
IC50 (second compound 0.00316 µM): > 10 µM
IC50 (second compound 0.01 µM): > 10 µM
IC50 (second compound 0.0316 µM): > 10 µM
IC50 (second compound 0.1 µM): > 10 µM
IC50 (second compound 0.316 µM): > 10 µM
IC50 (second compound 1 µM): > 10 µM
viability, T/C [1]: 86%
viability, T/C [2]: 108%
viability, T/C [3]: 98.5%
viability, T/C [4]: 112%
viability, T/C [5]: 96%
viability, T/C [6]: 97.4%
viability, T/C [7]: 92.6%
viability, T/C [8]: 98.4%
viability, T/C [9]: 110%
viability, T/C [10]: 100%
viability, T/C [11]: 96%
viability, T/C [12]: 87.1%
viability, T/C [13]: 96.8%
viability, T/C [14]: 101%
viability, T/C [15]: 89.7%
viability, T/C [16]: 93.7%
viability, T/C [17]: 93.8%
viability, T/C [18]: 79.2%
viability, T/C [19]: 78%
viability, T/C [20]: 79.4%
viability, T/C [21]: 89.1%
viability, T/C [22]: 82.7%
viability, T/C [23]: 97.1%
viability, T/C [24]: 76.7%
viability, T/C [25]: 70.2%
viability, T/C [26]: 73.2%
viability, T/C [27]: 66.7%
viability, T/C [28]: 73.5%
viability, T/C [29]: 66.7%
viability, T/C [30]: 72%
viability, T/C [31]: 55%
viability, T/C [32]: 55.1%
viability, T/C [33]: 68.9%
viability, T/C [34]: 63.1%
viability, T/C [35]: 58%
viability, T/C [36]: 58.6%
